According to US11590117B2, “Treatment of a hematologic malignancy with 2-(4-chlorophenyl)-n-((2-(2,6-dioxopiperidin-3-yl)-1-oxoisoindolin-5-yl)methyl)-2,2-difluoroacetamide” (priority 2016, dated 2023):
Like-named read-outs stand apart in the source and are kept apart here.

What was measured:
Experiment in all cases: IncuCyte Kinetic Caspase-3/7 Apoptosis Assay
Type in all cases: cell-based
Settings in all cases: Homo sapiens, read-out: Compound 1-induced Apoptosis EC50
[1] = tested on: HL-60
From the text: (§1) Methods. Acute Myeloid Leukemia Cell Line Panel: Human AML cell lines, AML-193, F36-P, GDM-1, HL-60, HNT-34, Kasumi-1, Kasumi-3, KG-1, KG-1a, ML-2, MOLM-13, MUTZ-8, MV-4-11, NOMO-1, OCI-AML2, OCI-AML3, SIG-M5, TF-1, THP-1, and UT-7 were obtained from American Type Culture Collection (ATCC; Manassas, Va.) and Deutsche Sammlung von Mikroorganismen und Zellkulturen (DSMZ) (Germany) cell banks. The AML panel includes cell line(s) from each FAB classification (M0-M7) (Table 7).
(§2) Cell Culture Conditions: Cell lines were maintained in growth media containing 20% fetal bovine serum (FBS) (Hyclone Cat no. SH30910.03, Lot no. AZF188864; Corning REFno. 35-010-CV, Lot no. 35010124) supplemented with or without 10 ng/mL human recombinant granulocyte-macrophage colony stimulating factor (Sigma-Aldrich Cat no. SRP3050) (Table 8). Medium was purchased from ATCC (Cat no. 30-2001, 30-2002, 30-2003, 30-2005) and Gibco (REF no. 12561-056). Human recombinant granulocyte macrophage colony stimulating factor (GM-CSF) was expressed in Escherichia coli. The cell doubling times for each cell line were provided by ATCC and DSMZ. Cells were maintained in humidified incubators at 5% carbon dioxide (CO2). All cell lines were acclimated to Eagle's minimal essential medium (EMEM)+20% FBS with or without GM-CSF over 2 to 4 weeks prior to live cell imaging using IncuCyte Zoom (Essen Biosciences). The use of EMEM was necessary to eliminate background fluorescence caused by riboflavin in most media.
(§3) Incubation of Cell Cultures with Compound 1: Compound 1 was provided for studies by Celgene chemistry group at a stock concentration of 30 mM in 20 μL dimethyl sulfoxide (DMSO) frozen. Costar 96-well cell culture plates (Corning Cat no. 3595) were coated with 100 μL of 10 µg/mL fibronectin (Sigma-Aldrich Cat no. F1141) for 4 hours at 37° C. and immediately used or refrigerated overnight for later use. Cells (3000 to 6000 cells) were plated in growth medi in fibronectin-coated 96-well plates and incubated for a minimum of a few hours to overnight. Cells were incubated with a 12-point concentration response in triplicate with Compound 1 ([…]) including DMSO and Media controls. A 3-fold serial dilution of Compound 1 starting from a concentration of 200 μM in 0.6% DMSO (diluted in Media) was performed. For most sensitive cell lines, a 3-fold serial dilution of Compound 1 starting from a concentration of 20 μM in 0.6% DMSO (diluted in media) was performed. A volume of 5 μL or 10 μL for each dilution was added to 100 μL or 200 μL cells, respectively (0.3% DMSO final) and incubated for live cell imaging.
(§4) Live Cell Imaging on IncuCyte Zoom: Following incubation of cells with Compound 1, diluted Caspase 3/7 reagent (Essen Biosciences Cat no. 4440) is added to each well. The Caspase-3/7 reagent couples the activated caspase-3/7 recognition motif (DEVD) to NucView™488, a DNA intercalating dye. The cleavage of substrate by activated caspase-3/7 results in the release of the DNA dye and green fluorescent staining of nuclear DNA. This allows imaging of cells undergoing caspase-3/7 mediated apoptosis over time. Caspase-3/7 activation was quantified using the IncuCyte™ ZOOM basic analyzer. Red-labeled cell lines were also imaged over time using the IncuCyte™ ZOOM basic analyzer, for determination of both cell doubling time and Compound 1 effect on cell viability. Experiments were performed at least two times in each cell line.
(§5) Next, a 4 parameter log-logistic model was used to determine relative EC50 at each time point by the ‘drm’ function from the R ‘drc’ package (Ritz C, Streibig J C. Bioassay Analysis using R. J. Statist. Software 2005; 12(5):1-22). Goodness of fit was measured by R squared (coefficient of determination or the amount of variation explained by the model fit) of ≥80%, and EC50 parameter was assessed by having a ratio of standard error to the parameter of ≤40%, and the presence of at least one concentration point above and below the reported EC50. […]

[2] = tested on: HNT-34
From the text: as §1, §2, §3, §4, §5

[3] = tested on: KG-1a
From the text: as §1, §2, §3, §4, §5

[4] = tested on: Kasumi-1
From the text: as §1, §2, §3, §4, §5

[5] = tested on: Kasumi-3
From the text: as §1, §2, §3, §4, §5

[6] = tested on: MOLM-13
From the text: as §1, §2, §3, §4, §5

[7] = tested on: MUTZ-8
From the text: as §1, §2, §3, §4, §5

[8] = tested on: MV-4-11
From the text: as §1, §2, §3, §4, §5

[9] = tested on: Nomo-1
From the text: as §1, §2, §3, §4, §5

[10] = tested on: OCI-AML3
From the text: as §1, §2, §3, §4, §5

[11] = tested on: SIG-M5
From the text: as §1, §2, §3, §4, §5

[12] = tested on: TF-1
From the text: as §1, §2, §3, §4, §5

Compound O=C1CCC(N2Cc3cc(CNC(=O)C(F)(F)c4ccc(Cl)cc4)ccc3C2=O)C(=O)N1 (centres unmarked) [Compound 1, 2-(4-chlorophenyl)-N-((2-(2,6-dioxopiperidin-3-yl)-1-oxoisoindolin-5-yl)methyl)-2,2-difluoroacetamide] has an EC50 ([1]; 24 hr) of 73 nM, an EC50 ([1]; 48 hr) of 15 nM and an EC50 ([1]; 72 hr) of 8 nM. It also gave an EC50 ([2]; 24 hr) of 7 nM, an EC50 ([2]; 48 hr) of 4 nM and an EC50 ([2]; 96 hr) of 2 nM. It also gave an EC50 ([3]; 24 hr) of 226 nM, an EC50 ([3]; 48 hr) of 145 nM and an EC50 ([3]; 72 hr) of 186 nM. It also gave an EC50 ([4]; 48 hr) of 124 nM, an EC50 ([4]; 72 hr) of 254 nM and an EC50 ([4]; 96 hr) of 55 nM. The EC50 ([5]; 12 hr) was 54 nM, the EC50 ([5]; 24 hr) was 10 nM and the EC50 ([5]; 48 hr) was 4 nM. For the same compound, the EC50 ([5]; 72 hr) was 3 nM, the EC50 ([5]; 96 hr) was 1 nM and the EC50 ([6]; 24 hr) was 916 nM. The EC50 ([6]; 48 hr) was 368 nM, the EC50 ([6]; 72 hr) was 156 nM and the EC50 ([6]; 96 hr) was 79 nM. The EC50 ([7]; 24 hr) was 88 nM, the EC50 ([7]; 48 hr) was 40 nM and the EC50 ([7]; 72 hr) was 18 nM. The EC50 ([7]; 96 hr) was 15 nM, the EC50 ([8]; MV4-11, 12 hr) was 227 nM and the EC50 ([8]; MV4-11, 24 hr) was 167 nM. For the same compound, the EC50 ([8]; MV4-11, 48 hr) was 32 nM, the EC50 ([8]; MV4-11, 72 hr) was 16 nM and the EC50 ([8]; MV4-11, 96 hr) was 17 nM. It also gave an EC50 ([9]; 24 hr) of 63 nM, an EC50 ([9]; 48 hr) of 133 nM and an EC50 ([9]; 72 hr) of 84 nM. For the same compound, the EC50 ([9]; 96 hr) was 66 nM, the EC50 ([10]; OCI-AML-3, 48 hr) was 896 nM and the EC50 ([10]; OCI-AML-3, 72 hr) was 971 nM. It also gave an EC50 ([10]; OCI-AML-3, 96 hr) of 418 nM, an EC50 ([11]; 24 hr) of 148 nM and an EC50 ([11]; 48 hr) of 97 nM. It also gave an EC50 ([11]; 72 hr) of 50 nM, an EC50 ([11]; 96 hr) of 33 nM and an EC50 ([12]; 48 hr) of 129 nM. The EC50 ([12]; 72 hr) was 65 nM and the EC50 ([12]; 96 hr) was 64 nM.
